Results published in patent publication US10370324B2, “Phenyl and pyridinyl hydroxamic acids” (Acetylon Pharmaceuticals, Inc., priority 2016, dated 2019).

Tests used:
[1] = target: T1, HDAC6 (Homo sapiens, UniProt Q9UBN7); assay: HDAC enzyme assay, HDAC6; format: biochemical; settings: 2 ng/ml enzyme, 14 μM tripeptide substrate; given as a range
T1 construct: purchased BPS Biosciences
T1 sequence (Q9UBN7 1-1215): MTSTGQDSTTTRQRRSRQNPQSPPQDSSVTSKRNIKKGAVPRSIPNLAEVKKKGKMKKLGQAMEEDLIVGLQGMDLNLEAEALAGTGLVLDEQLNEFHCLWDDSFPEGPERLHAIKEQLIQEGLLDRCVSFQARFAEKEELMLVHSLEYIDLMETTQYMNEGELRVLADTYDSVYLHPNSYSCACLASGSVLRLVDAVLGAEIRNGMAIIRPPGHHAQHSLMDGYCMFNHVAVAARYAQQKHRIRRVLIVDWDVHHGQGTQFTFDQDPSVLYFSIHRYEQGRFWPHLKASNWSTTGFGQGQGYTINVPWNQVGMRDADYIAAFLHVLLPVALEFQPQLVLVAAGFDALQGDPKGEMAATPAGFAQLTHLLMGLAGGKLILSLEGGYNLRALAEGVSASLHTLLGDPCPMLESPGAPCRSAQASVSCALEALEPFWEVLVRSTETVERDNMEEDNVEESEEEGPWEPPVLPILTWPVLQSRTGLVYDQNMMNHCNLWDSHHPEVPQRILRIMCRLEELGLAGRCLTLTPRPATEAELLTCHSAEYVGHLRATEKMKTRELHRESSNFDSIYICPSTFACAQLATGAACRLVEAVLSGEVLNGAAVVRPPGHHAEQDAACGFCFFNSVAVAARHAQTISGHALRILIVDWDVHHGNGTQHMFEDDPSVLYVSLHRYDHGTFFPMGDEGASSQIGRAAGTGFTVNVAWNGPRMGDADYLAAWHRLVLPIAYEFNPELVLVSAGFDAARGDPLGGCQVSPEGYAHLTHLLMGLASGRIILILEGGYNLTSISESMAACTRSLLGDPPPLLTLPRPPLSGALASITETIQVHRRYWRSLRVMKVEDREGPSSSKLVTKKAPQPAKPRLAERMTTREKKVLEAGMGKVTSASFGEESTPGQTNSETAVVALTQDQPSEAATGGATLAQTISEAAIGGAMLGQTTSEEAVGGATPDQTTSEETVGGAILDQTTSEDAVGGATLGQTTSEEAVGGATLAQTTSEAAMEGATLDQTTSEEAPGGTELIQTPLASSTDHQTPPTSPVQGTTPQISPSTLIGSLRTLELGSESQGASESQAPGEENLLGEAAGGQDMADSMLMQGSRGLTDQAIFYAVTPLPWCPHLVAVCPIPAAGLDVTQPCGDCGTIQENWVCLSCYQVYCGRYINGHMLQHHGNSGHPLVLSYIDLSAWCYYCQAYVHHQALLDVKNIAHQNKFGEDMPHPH
Description: (§1) Compounds for testing were diluted in DMSO to 50 fold the final concentration and a ten-point three-fold dilution series was made. The compounds were diluted in assay buffer (50 mM HEPES, pH 7.4, 100 mM KCl, 0.001% Tween-20, 0.05% BSA, 20 ⊐M TCEP) to 6-fold their final concentration. The HDAC enzymes (purchased from BPS Biosciences) were diluted to 1.5-fold their final concentration in assay buffer. The tripeptide substrate and trypsin at 0.05 μM final concentration were diluted in assay buffer at 6-fold their final concentration. The final enzyme concentrations used in these assays were 3.3 ng/ml (HDAC1), 0.2 ng/ml (HDAC2), 0.08 ng/ml (HDAC3) and 2 ng/ml (HDAC6). The final substrate concentrations used were 16 μM (HDAC1), 10 μM (HDAC2), 17 μM (HDAC3) and 14 μM (HDAC6).
(§2) Five μL of compounds and 20 μL of enzyme were added to wells of a black, opaque 384 well plate in duplicate. Enzyme and compound were incubated together at room temperature for 10 minutes. Five μL of substrate was added to each well, the plate was shaken for 60 seconds and placed into a Victor 2 microtiter plate reader. The development of fluorescence was monitored for 60 min and the linear rate of the reaction was calculated. The IC50 was determined using Graph Pad Prism by a four parameter curve fit.

[2] = target: T2, HDAC1 (Homo sapiens, UniProt Q13547); assay: HDAC enzyme assay, HDAC1; format: biochemical; settings: 3.3 ng/ml enzyme, 16 μM tripeptide substrate; given as a range
T2 construct: purchased BPS Biosciences
Description: as §1, §2

[3] = target: T3, HDAC2 (Homo sapiens, UniProt Q92769); assay: HDAC enzyme assay, HDAC2; format: biochemical; settings: 0.2 ng/ml enzyme, 10 μM tripeptide substrate; given as a range
T3 construct: purchased BPS Biosciences
Description: as §1, §2

[4] = target: T4, HDAC3 (Homo sapiens, UniProt O15379); assay: HDAC enzyme assay, HDAC3; format: biochemical; settings: 0.08 ng/ml enzyme, 17 μM tripeptide substrate; given as a range
T4 construct: purchased BPS Biosciences
Description: as §1, §2

[5] = Mouse pharmacokinetic studies; format: in vivo; settings: male C57BL/6 mice, intraperitoneal 5 mg/kg; for Brain AUC: brain homogenate; for AUC / Kp: mouse, ip; for AUC: plasma; for Kp: from AUC values of brain and plasma, read-out: Brain/plasma ratio
Description: Male C57BL/6 mice were fasted overnight. Compounds were dissolved in dimethyl acetamide at 10 times the final concentration, then Solutol HS 15 (BASF) was added to a final concentration of 10%. Finally 80% saline was added and vortexed to achieve a clear solution. Fifteen animals were injected intraperitonealy with 5 mg/kg compound. Blood was collected by retro-orbital bleed at 5 minutes, 15 minutes, 30 minutes, 1 hour, 2 hours, 4 hours, 8 hours and 24 hours after dosing. At 5 minutes, 30 minutes, 1 hour and 4 hours after dosing three animals per time point were sacrificed and brains were removed. The blood was centrifuged at 2000 g for 5 minutes at 4° C. to obtain plasma. Brain samples were homogenized in PBS. The plasma and brain homogenate were extracted with acetonitrile and the level of compound was analyzed by LC/MS/MS. The level of compound in plasma was calculated from a standard curve in rat plasma and the level in brain was calculated from a standard curve in brain homogenate. The area under the curve in plasma and brain were calculated using WinNonLin software. The brain to plasma ratio was determined using the area under the curve values for the two compartments.

[6] = Rat pharmacokinetic studies; format: in vivo; settings: male SD rats, IV 1 mg/kg, plasma
Description: Male SD rats were fasted overnight. Compounds of the invention were dissolved in dimethyl acetamide at 10 times the final concentration, then Solutol HS 15 (BASF) was added to a final concentration of 10%. Finally 80% saline was added and vortexed to achieve a clear solution. For the IV dosing three animals were injected via the foot dorsal vein with 1 mg/kg compound. For the PO dosing 5 mg/kg of compound was delivered by oral gavage. Blood was collected via the tail vein into K2EDTA tubes at 5 minutes, 15 minutes, 30 minutes, 1 hour, 2 hours, 4 hours, 8 hours and 24 hours after dosing. The blood was centrifuged at 2000 g for 5 minutes at 4° C. to obtain plasma. The plasma was extracted with acetonitrile and the level of compound was analyzed by LC/MS/MS. The level of compound in plasma was calculated from a standard curve in rat plasma. The IV clearance and area under the curve were calculated using WinNonLin software. The dose adjusted area under the curve for the IV and oral dosing were used to calculate the oral bioavailability.

T4 sequence (O15379 whole entry): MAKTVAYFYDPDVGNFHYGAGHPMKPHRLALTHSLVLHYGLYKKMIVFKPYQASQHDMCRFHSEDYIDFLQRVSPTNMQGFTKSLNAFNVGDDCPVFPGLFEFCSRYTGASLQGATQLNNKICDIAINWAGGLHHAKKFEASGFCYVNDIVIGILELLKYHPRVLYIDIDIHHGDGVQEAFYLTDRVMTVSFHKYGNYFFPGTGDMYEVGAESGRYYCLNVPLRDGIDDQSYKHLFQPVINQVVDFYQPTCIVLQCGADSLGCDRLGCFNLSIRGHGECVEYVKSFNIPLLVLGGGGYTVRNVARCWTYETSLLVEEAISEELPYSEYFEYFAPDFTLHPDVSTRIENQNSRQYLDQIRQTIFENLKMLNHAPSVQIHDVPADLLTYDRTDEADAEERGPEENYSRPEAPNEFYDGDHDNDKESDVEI
T4 sequence (Q9Y618 395-489 partner limits assumed): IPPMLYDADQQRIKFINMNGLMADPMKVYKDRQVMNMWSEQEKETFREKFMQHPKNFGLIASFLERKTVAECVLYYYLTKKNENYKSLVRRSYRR
T2 sequence (Q13547 whole entry): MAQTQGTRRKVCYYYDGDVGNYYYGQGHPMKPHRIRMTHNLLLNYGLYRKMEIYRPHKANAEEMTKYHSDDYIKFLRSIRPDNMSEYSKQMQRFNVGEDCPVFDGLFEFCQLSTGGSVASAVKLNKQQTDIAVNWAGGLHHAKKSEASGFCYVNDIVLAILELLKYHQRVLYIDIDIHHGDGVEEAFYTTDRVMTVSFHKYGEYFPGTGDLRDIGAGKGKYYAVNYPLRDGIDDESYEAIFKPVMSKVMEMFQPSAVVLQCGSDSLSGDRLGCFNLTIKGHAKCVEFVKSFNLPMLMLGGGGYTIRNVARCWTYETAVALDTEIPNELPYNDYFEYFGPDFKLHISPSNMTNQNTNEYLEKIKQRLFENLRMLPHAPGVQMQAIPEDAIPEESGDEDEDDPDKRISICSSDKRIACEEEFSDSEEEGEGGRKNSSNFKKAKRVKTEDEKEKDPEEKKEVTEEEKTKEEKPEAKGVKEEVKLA
T3 sequence (Q92769 whole entry): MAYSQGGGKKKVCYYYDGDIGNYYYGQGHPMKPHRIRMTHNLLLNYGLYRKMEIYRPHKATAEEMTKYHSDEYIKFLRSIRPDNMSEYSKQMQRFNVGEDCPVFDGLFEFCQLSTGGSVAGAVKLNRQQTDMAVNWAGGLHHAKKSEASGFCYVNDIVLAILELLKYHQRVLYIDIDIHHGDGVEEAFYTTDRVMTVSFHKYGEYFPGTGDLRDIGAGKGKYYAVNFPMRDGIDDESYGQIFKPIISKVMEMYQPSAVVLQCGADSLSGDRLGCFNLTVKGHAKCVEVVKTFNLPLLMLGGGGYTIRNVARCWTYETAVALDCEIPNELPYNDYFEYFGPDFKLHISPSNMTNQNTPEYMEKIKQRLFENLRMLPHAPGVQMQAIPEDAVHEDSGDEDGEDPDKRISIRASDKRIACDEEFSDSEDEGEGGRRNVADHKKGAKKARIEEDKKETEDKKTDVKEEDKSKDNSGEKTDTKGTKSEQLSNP

Row | SMILES | IC50 [1] [nM] | IC50 [2] [nM] | IC50 [3] [nM] | IC50 [4] [nM] | Brain AUC [5] [ng·h/mL] | AUC [5] [ng·h/mL] | Kp [5] | clearance [6] [mL/min/kg]
1 | COc1ccc(OC)c(CNc2ccc(C(=O)NO)cc2)c1 [Compound 006] | 30 to 40 | 450 to 600 | 900 to 1100 | 900 to 1100 | – | – | – | –
2 | O=C(NO)c1ccc(NCc2ccccc2)cn1 [Compound 012] | – | – | – | – | 100 to 150 | 75 to 125 | 1 to 3 | –
3 | O=C(NO)c1ccc(NCc2cc(F)ccc2F)cc1 [Compound 007] | 4 to 8 | 450 to 600 | 450 to 600 | 700 to 800 | – | – | – | –
4 | COc1ccc(F)cc1CNc1ccc(C(=O)NO)cc1 [Compound 005] | 1 to 6 | 500 to 800 | 500 to 800 | 500 to 800 | – | – | – | 167 to 333
5 | O=C(NO)c1ccc(NCc2cc(Cl)ccc2Cl)cc1 [Compound 004] | 4 to 8 | 100 to 200 | 100 to 200 | 100 to 200 | – | – | – | –
6 | O=C(NO)c1ccc(NC2(c3ccccc3)CC2)cc1 [Compound 009] | 0.5 to 2.5 | 50 to 100 | 250 to 350 | 400 to 500 | – | – | – | 50 to 117
7 | COc1ccc(Cl)cc1CNc1ccc(C(=O)NO)cc1 [Compound 001] | 1 to 6 | 200 to 400 | 200 to 400 | 200 to 400 | – | – | – | 16.7 to 83.3
8 | O=C(NO)c1ccc(N(c2ccccc2)c2ccccc2)cn1 [Compound 013] | – | – | – | – | 600 to 800 | 150 to 250 | 2 to 6 | –
9 | O=C(NO)c1ccc(NC2(c3ccccc3)CCCCC2)cc1 [Compound 010] | 4 to 8 | 1000 to 2000 | 1500 to 2000 | 6000 to 7000 | – | – | – | 33.3 to 66.7
10 | O=C(NO)c1ccc(NC2(c3cc(F)ccc3F)CCOCC2)cc1 [Compound 008] | 0.1 to 1 | 150 to 250 | 200 to 300 | 1000 to 1100 | – | – | – | 83.3 to 167
11 | O=C(NO)c1ccc(NCc2ccccc2)cc1 [Compound 011] | 15 to 25 | 700 to 800 | 800 to 900 | 1200 to 1300 | – | – | – | 91.7 to 117
12 | O=C(NO)c1ccc(NC(c2ccccc2)c2ccccc2)cn1 [Compound 002] | – | – | – | – | 450 to 600 | 200 to 250 | 1 to 5 | –
